# Legend:
# Assay type in all cases: in vivo
# Botrytis cinerea = assay: Test E: test suspension sprayed on tomato seedlings, inoculated next day with Botrytis cinerea (tomato Botrytis); visual disease rating (100 = 100% disease control, 0 = no control; dash = not tested)
# Description: (§1) The resulting test suspensions were then used in Tests A-F. The test suspension was sprayed to the point of run-off on tomato seedlings. The following day the seedlings were inoculated with a spore suspension of Botrytis cinerea (the causal agent of tomato Botrytis) and incubated in a saturated atmosphere at 20° C. for 48 h, and then moved to a growth chamber at 24° C. for 3 days, after which time visual disease ratings were made. A rating of 100 indicates 100% disease control and a rating of 0 indicates no disease control (relative to the controls). A dash (—) indicates the compound was not tested.
# Zymoseptoria tritici = assay: Test A: test solution sprayed on wheat seedlings, inoculated next day with Zymoseptoria tritici (wheat leaf blotch); disease rating (100 = 100% disease control, 0 = no control; dash = not tested)
# Description: The resulting test suspensions were then used in Tests A-F. The test solution was sprayed to the point of run-off on wheat seedlings. The following day the seedlings were inoculated with a spore suspension of Zymoseptoria tritici (the causal agent of wheat leaf blotch) and incubated in a saturated atmosphere at 24° C. for 48 h, and then moved to a growth chamber at 20° C. for 17 days, after which time disease ratings were made. A rating of 100 indicates 100% disease control and a rating of 0 indicates no disease control (relative to the controls). A dash (—) indicates the compound was not tested.
# [1] = test system: Puccinia recondita f. sp. tritici; assay: Test B: test solution sprayed on wheat seedlings, inoculated next day with Puccinia recondita f. sp. tritici (wheat leaf rust); disease rating (100 = 100% disease control, 0 = no control; dash = not tested)
# Excerpt: The resulting test suspensions were then used in Tests A-F. The test solution was sprayed to the point of run-off on wheat seedlings. […] A rating of 100 indicates 100% disease control and a rating of 0 indicates no disease control (relative to the controls). A dash (—) indicates the compound was not tested.
# Alternaria solani = assay: Test F: test suspension sprayed on tomato seedlings, inoculated next day with Alternaria solani (tomato early blight); visual disease rating (100 = 100% disease control, 0 = no control; dash = not tested)
# Description: as §1, with “Alternaria solani” for “Botrytis cinerea”, “early blight)” for “Botrytis)”, “27°” for “20°”, “20°” for “24°”
# [2] = test system: Blumeria graminis f. sp. tritici; assay: Test C: test suspension sprayed on wheat seedlings, inoculated next day with Blumeria graminis f. sp. tritici (wheat powdery mildew); visual disease rating (100 = 100% disease control, 0 = no control; dash = not tested)
# Description: The resulting test suspensions were then used in Tests A-F. The test suspension was sprayed to the point of run-off on wheat seedlings. The following day the seedlings were inoculated with a spore dust of Blumeria graminis f. sp. tritici, (also known as Erysiphe graminis f. sp. tritici, the causal agent of wheat powdery mildew) and incubated in a growth chamber at 20° C. for 8 days, after which time visual disease ratings were made. A rating of 100 indicates 100% disease control and a rating of 0 indicates no disease control (relative to the controls). A dash (—) indicates the compound was not tested.
# Phakopsora pachyrhizi = assay: Test D: test solution sprayed on soybean seedlings, inoculated next day with Phakopsora pachyrhizi (Asian soybean rust); visual disease rating (100 = 100% disease control, 0 = no control; dash = not tested)
# Excerpt: General protocol for preparing test suspensions for Tests A-F: the test compounds were first dissolved in acetone in an amount equal to 3% of the final volume and then suspended at the desired concentration (in ppm) in acetone and purified water (50/50 mix by volume) containing 250 ppm of the surfactant PEG400 (polyhydric alcohol esters). The resulting test suspensions were then used in Tests A-F.
# The test solution was sprayed to the point of run-off on soybean seedlings. The following day the seedlings were inoculated with a spore suspension of Phakopsora pachyrhizi (the causal agent of Asian soybean rust) and incubated in a saturated atmosphere at 22° C. for 24 h and then moved to a growth chamber at 22° C. for 8 days, after which time visual disease ratings were made.
# A rating of 100 indicates 100% disease control and a rating of 0 indicates no disease control (relative to the controls). A dash (—) indicates the compound was not tested.
SMILES,Test E disease control rating (Botrytis cinerea; 50 ppm),Test A disease control rating (Zymoseptoria tritici; 50 ppm),Test B disease control rating ([1]; 50 ppm),Test F disease control rating (Alternaria solani; 50 ppm),Test C disease control rating ([2]; 50 ppm),Test D disease control rating (Phakopsora pachyrhizi; 50 ppm),other results
COc1ccc(Cl)c(-c2nn(C)c(=O)c(Cl)c2-c2ccccc2)c1 [Compound 95],96%,100%,99%,24%,97%,0%,–
COc1ccc(Cl)c(C2=NN(C)C(=O)CC2c2c(F)cccc2F)c1 (stereo not drawn) [Compound 207],100%,79%,68%,0%,90%,0%,–
COc1ccc(Cl)c(-c2nn(C)c(=O)c(OC)c2-c2ccc(F)cc2F)c1 [Compound 48],98%,100%,100%,99%,99%,97%,–
CCn1nc(-c2cc(OC)cc(OC)c2Cl)c(-c2c(F)cccc2F)c(Cl)c1=O [Compound 9],99%,100%,100%,91%,99%,99%,–
CCc1c(-c2c(F)cccc2F)c(-c2cccc(OC)c2Cl)nn(C)c1=O [Compound 178],93%,100%,100%,100%,100%,100%,–
COc1ccc(Cl)c(-c2nn(C)c(=O)c(Cl)c2-c2ccc(F)cc2F)c1 [Compound 185],96%,100%,100%,100%,99%,100%,–
COc1c(-c2ccc(F)cc2Cl)c(-c2cc(F)ccc2Br)nn(C)c1=O [Compound 121],99%,100%,100%,99%,99%,72%,–
COc1c(-c2ccc(F)cc2Cl)c(-c2cccc(F)c2Br)nn(C)c1=O [Compound 110],96%,100%,100%,99%,100%,79%,–
Cn1nc(-c2cccc(F)c2Cl)c(-c2c(F)cccc2F)cc1=O [Compound 29],–,–,–,–,–,–,Test E disease control rating (Botrytis cinerea; 250 ppm): 100%; Test A disease control rating (Zymoseptoria tritici; 250 ppm): 100%; Test B disease control rating ([1]; 250 ppm): 98%; Test F disease control rating (Alternaria solani; 250 ppm): 0%; Test C disease control rating ([2]; 250 ppm): 99%; Test D disease control rating (Phakopsora pachyrhizi; 250 ppm): 25%
CCn1nc(-c2ccc(F)cc2Cl)c(-c2ccc(F)cc2Cl)c(C#N)c1=O [Compound 7],–,–,–,–,–,–,Test E disease control rating (Botrytis cinerea; 250 ppm): 99%; Test A disease control rating (Zymoseptoria tritici; 250 ppm): 98%; Test B disease control rating ([1]; 250 ppm): 74%; Test F disease control rating (Alternaria solani; 250 ppm): 0%; Test C disease control rating ([2]; 250 ppm): 0%; Test D disease control rating (Phakopsora pachyrhizi; 250 ppm): 0%
CCn1nc(-c2cc(OC)cc(OC)c2Cl)c(-c2c(F)cccc2F)c(OC)c1=O [Compound 75],97%,100%,99%,0%,98%,69%,–
Cn1nc(-c2cc(C#N)ccc2Cl)c(-c2ccc(F)cc2Cl)c(Cl)c1=O [Compound 49],96%,100%,100%,99%,98%,96%,–
"Cn1nc(-c2c(F)cccc2F)c(-c2c(F)cccc2F)cc1=O [Compound 5, 5,6-bis(2,6-difluorophenyl)-2-methyl-3(2H)-pyridazinone]",–,–,–,–,–,–,pest or weed control at 250 ppm (Botrytis cinerea; 250 ppm): 99%; pest or weed control at 250 ppm (Zymoseptoria tritici; 250 ppm): 42%; pest or weed control at 250 ppm ([1]; 250 ppm): 0%; pest or weed control at 250 ppm (Alternaria solani; 250 ppm): 0%; pest or weed control at 250 ppm ([2]; 250 ppm): 100%; pest or weed control at 250 ppm (Phakopsora pachyrhizi; 250 ppm): 0%
CC(=O)c1c(-c2ccc(F)cc2Cl)c(-c2ccc(F)cc2Cl)nn(C)c1=O [Compound 124],88%,100%,0%,0%,95%,73%,–
Cc1c(-c2ccc(F)cc2Cl)c(-c2cc(O)ccc2Cl)nn(C)c1=O [Compound 161],96%,98%,99%,47%,100%,99%,–
COc1cc(OC)c(Br)c(-c2nn(C)c(=O)c(Br)c2-c2ccc(F)cc2Cl)c1 [Compound 61],100%,100%,100%,99%,94%,99%,–
Cn1nc(-c2cccc(Cl)c2Cl)c(-c2ccc(F)cc2Cl)c(Cl)c1=O [Compound 104],97%,100%,100%,99%,100%,100%,–
CCn1nc(-c2cc(OC)cc(OC)c2)c(-c2c(F)cccc2F)cc1=O [Compound 32],–,–,–,–,–,–,Test E disease control rating (Botrytis cinerea; 250 ppm): 80%; Test A disease control rating (Zymoseptoria tritici; 250 ppm): 0%; Test B disease control rating ([1]; 250 ppm): 9%; Test F disease control rating (Alternaria solani; 250 ppm): 0%; Test C disease control rating ([2]; 250 ppm): 29%; Test D disease control rating (Phakopsora pachyrhizi; 250 ppm): 0%
COc1cc(C#N)cc(-c2nn(C)c(=O)c(OC)c2-c2ccc(F)cc2Cl)c1 [Compound 174],83%,–,95%,91%,97%,30%,–
CC(F)c1c(-c2ccc(F)cc2Cl)c(-c2ccc(F)cc2Cl)nn(C)c1=O (racemic) [Compound 132],97%,100%,68%,0%,–,0%,–
CC(O)c1c(-c2ccc(F)cc2Cl)c(-c2ccc(F)cc2Cl)nn(C)c1=O (racemic) [Compound 131],97%,96%,74%,0%,–,19%,–
COc1cc(C#N)cc(-c2nn(C)c(=O)c(Cl)c2-c2ccc(F)cc2Cl)c1 [Compound 173],92%,–,100%,99%,94%,84%,–
Cn1nc(-c2ccc(F)cc2Cl)c(-c2ccc(F)cc2Cl)c(C(F)F)c1=O [Compound 130],98%,100%,100%,98%,–,77%,–
Cn1nc(-c2ccc(F)cc2Cl)c(-c2ccc(F)cc2Cl)c(C(N)=O)c1=O [Compound 133],0%,3%,0%,0%,–,0%,–
